According to patent publication US20250108100A1, “C-TERMINAL FRAGMENT OF APOLIPOPROTEIN E AND APPLICATION THEREOF IN INHIBITING y-SECRETASE ACTIVITY” (SYNPHATEC (SHANGHAI) BIOPHARMACEUTICAL TECHNOLOGY CO., LTD., priority 2022, published 2025):
Entries after “also recorded” stand apart in the source; their conditions may differ.

What was measured:
wild-type mice = test: Endogenous Aβ40 in brain of wild-type mice after AAV neuronal expression (ELISA); assay type: in vivo, mouse; settings: hSyn promoter, vs GFP
5×FAD mice = test: Distribution of neuronally expressed ApoE around amyloid plaques in 5×FAD mice (immunofluorescence); assay type: in vivo, mouse; settings: lentiviral vectors
Method: Mice were anesthetized with isoflurane and perfused with 4% PFA. Dissected mouse brains were fixed overnight in 4% PFA and cryoprotected overnight in 30% sucrose. A cryostat (Leica CM3050S) was used to obtain frozen brain slices ([…]) from fixed and cryoprotected mouse brains. Floating slices were washed 3 times with 1×PBS and then permeabilized with 0.5% Triton-X in 1×PBS for 30 minutes. After blocking with 5% BSA in 1×PBS at room temperature for 1 h, the slices were incubated overnight at 4° C. in 5% BSA (in 1×PBS) buffer comprising the primary antibody. Slices were washed 3 times with 1×PBS and incubated with secondary antibody diluted in 5% BSA (1×PBS) buffer for 1 hour at room temperature. Samples were then washed 3 times with 1×PBS and mounted with Prolong Gold Antifade Mountant (Life Technology).
After being deeply anesthetized with isoflurane, mice (5 weeks old) were placed in a stereotaxic apparatus (RWD Instruments). The zero point (x, y, z, 0, 0, 0) is Bregma. Lentivirus (lentivirus-GFP, lentivirus-ApoE and lentivirus-ApoE-IRES-GFP) and AAV (AAV2/9-hSyn-EGFP-WPRE-pA and AAV2/9-hSyn-ApoECT; purchased from Shanghai Taitool Bioscience Co. Ltd.) were injected into the cortex (x, y, z, +/−1.6, 0, −1) or hippocampus (x, y, z, +/−1.5, −2, −1.5), injected 1 ul on each injection site. The mice were then returned to their cages for rehabilitation after surgery.

[1] = test system: ADAM10, BACE1, PS1 and PS2; test: mRNA (qRT-PCR) and protein (Western blot) expression of APP secretases in HEK 293T cells; assay type: cell-based, human; settings: qRT-PCR and Western blot, vs GFP control
Method: • a) A plasmid expressing the target protein in mammalian cells was constructed, and the protein expression promoter is CAG. • b) The target protein was expressed in HEK 293T cell line. Cells were subcultured one day before transfection, and transfection was performed when the degree of cell adhesion reached 70%-80%. The transfection reagent was lipofectamine2000 (ThermoFisher). • c) 4-6 hours post transfection, the medium were replaced with fresh cell culture medium. • d) 36-48 hours post transfection, the cells were lysed (10% 1M tris-HCl (pH=6.8), 4% SDS, 20% glycerol, 0.01% bromophenol blue), and the protein samples were collected and used for Western blot or stored in a −80° C. freezer. • e) Polyacrylamide gel electrophoresis. Before protein loading, the protein was boiled at 98° C. for 10 min, and then centrifuged at 12000 rpm for 10 min. Electrophoresis: 80V for the upper stacking gel; 120V for the lower separating gel. • f) Protein transfer. […]
Quantitect SYBR-Green qRT-PCR kit from Qiagen was used to quantitatively analyze the relative content of mRNA. qRT-PCR primers were listed in Table 2. […]

ApoE2: human apolipoprotein E2, full-length 299 amino acid residues, SEQ ID NO: 12
endogenous Aβ40 in the brain (wild-type mice): also reduce endogenous Aβ40 production; also recorded: reduced endogenous Aβ40 in the brain of mice
accumulation around amyloid plaques (5×FAD mice): a similar distribution pattern was detected around amyloid plaques
mRNA and protein expression of ADAM10, BACE1, PS1 and PS2 [1]: not altered
